The values that follow come from patent publication US10675267B2, “Methods for detection and eradication of myeloid leukemia stem cells” (priority 2015, dated 2020).

The test system of assay [1] is KG1a cells. The experiment in a line: In vitro splicing of endogenous transcripts (qRT-PCR) in KG1a. The format is cell-based. Particulars: KG1a AML cells, compared with MOLM-13. The protocol: For qRT-PCR analysis of relative total mRNA expression levels or splice isoform-specific expression analyses, cDNA was synthesized using 50 ng-1 […] reaction volumes using the First-Strand SUPERSCRIPT™ III Reverse Transcriptase Supermix (Life Technologies) followed by incubation with RNase H according to the manufacturer's protocol and as described previously (Abrahamsson et al., 2009; Crews et al., 2015). All cDNA products were stored at −20° C. Splice isoform-specific primers for PTK2B-202 were designed to bind to unique exon junctions for this transcript, which lacks exon 24. All primers (Supplemental Experimental Procedures Table) were diluted to 10 ∝M working dilutions in DNase/RNase-free water. qRT-PCR was performed in duplicate using cDNA (1 ∝Λ reverse transcription product per reaction) on an iCycler (Bio-Rad, Hercules, Calif.) using SYBR® GREENER™ Super Mix (Life Technologies) in 25-∝A volume reactions containing 0.2 ∝M of each forward and reverse primer. Cycling conditions were as follows: 50° C. for 2 minutes, then 95° C. for 8 minutes and 30 seconds, followed by 40 cycles of 95° C. for 15 seconds and 60° C. for 60 seconds. […] For standard qRT-PCR, human HPRT mRNA transcript levels were used to normalize Ct values obtained for each gene, and relative expression levels were calculated using the 2-ddCt method. […]
In general terms: In qPCR the cycle at which signal appears reflects the starting amount.

Assay [2] relates to AML LSC (CD34+ cells from AML primary samples). The experiment in a line: SL/M2 stromal co-culture with colony formation (survival) and replating (self-renewal) assays, AML. Type of assay: cell-based, human. The protocol: In hypothesis-driven experiments, the splicing modulatory compound 17S-FD-895 was tested to determine efficacy in altering splicing activity in cell lines, and to evaluate effects on AML LSC survival and self-renewal capacity in humanized bone marrow stromal co-cultures and in PRIMAGRAFT™ AML LSC models. Cell culture experiments were performed using 293T and sAML (MOLM-13) cell lines, and SL and M2 bone marrow stromal cell lines. Animal studies were performed using immunocompromised Rag2−/−γc−/−[20] or NOD/SCID-IL2RG mice (Jackson Laboratory, Bar Harbor, Me.). Primary AML and normal control samples were used in in vitro hematopoietic stem and progenitor assays after bone marrow stromal co-culture and treatment with splicing modulatory compounds (FD-895 or 17S-FD-895) or vehicle control (DMSO). Colony formation potential and self-renewal capacity were assessed by counting colony numbers (survival) after two weeks of growth in semi-solid (methylcellulose) media, and subsequent replating capacity (self-renewal) was assessed after transfer to fresh methylcellulose for an additional two weeks of culture. Three primary AML samples were utilized to establish PRIMAGRAFT™ models in immunocompromised mice, and mice engrafted with cells from two of these models (AML-37 and AML-08) were treated with 17S-FD-895 or vehicle (DMSO) to evaluate changes in AML LSC survival and self-renewal capacity in vivo. Data were collected by flow cytometry and qRT-PCR analysis of CD34-selected human LSC-enriched cells from engrafted mice.
Bone marrow SL/M2 monolayers were established from freshly inactivated (irradiated) cells and then human CD34^+ cells selected from AML primary samples (n=8) and normal controls (CD34^+ cells from cord blood, CB, n=6; or aged bone marrow, n=6) were added. Survival and self-renewal of the CD34+ cells were investigated by methylcellulose-based colony and replating assays. Two SF3B1-targeted splicing modulators, FD-895 or 17S-FD-895, were added at the initiation of co-culture at concentrations ranging from 0.1 to 10 μM.
Mouse bone marrow stromal cell lines (SL and M2 mycoplasma-free authenticated cells obtained from ATCC) expressing human interleukin-3 (IL-3), stem cell factor (SCF) and granulocyte-colony stimulating factor (G-CSF), which support erythroid and myeloid cell expansion and differentiation, were maintained under standard culture conditions, as previously described. Briefly, SL cells were grown in complete medium containing DMEM (Corning), 10% FBS, 1% Glutamax, and 1% penicillin-streptomycin (Life Technologies), while M2 cells were grown in complete medium containing RPMI, 10% FBS, 1% Glutamax, and 1% penicillin-streptomycin (all from Life Technologies). Every four passages, cells were selected by addition of G418 and hygromycin to the culture media for one passage (3-4 days), to maintain human cytokine expression. All cell lines were maintained in T-25 or T-75 culture flasks and were passaged at dilutions of 1:5-1:10 every 2-4 days. Low passage aliquots of cells were thawed every two months to ensure consistency of experiments.
As previously described (Goff et al., 2013), humanized bone marrow SL/M2 monolayers were inactivated (irradiated) and then human CD34^+ cells selected from AML primary samples and normal controls were added for two weeks of co-culture, followed by methylcellulose-based colony and replating assays. FD-895 or 17S-FD-895 were added at the initiation of co-culture, with DMSO as a vehicle control.
Mouse bone marrow stromal cell lines (SL and M2 mycoplasma-free authenticated cells obtained from ATCC) expressing human interleukin-3 (IL-3), stem cell factor (SCF) and granulocyte-colony stimulating factor (G-CSF), which support erythroid and myeloid cell expansion and differentiation (Hogge et al., 1996), were maintained under standard culture conditions, as previously described (Goff et al., 2013). […]

The mark [3] stands for this setting: two weeks SL/M2 co-culture, 0.1-10 μM, versus DMSO.

Each structure is given as a SMILES string. “Also recorded” adds a separate entry of the source.

Turning to `CC[C@H](OC)[C@@H](C)[C@H]1O[C@@H]1[C@@H](O)[C@H](C)/C=C/C=C(\C)[C@H]1OC(=O)C[C@H](O)CC[C@@](C)(O)[C@@H](OC(C)=O)/C=C/[C@@H]1C` (stereo in doubt) [Formula 17S-FD-895, 17S-FD-895], the “DNAJB1 intron 2 levels” value in assay [1] is given as “to a lesser extent”. For the same compound, the “AML LSC survival compared with FD-895” value in assay [2] (1 μM dose, p=0.020) is “significantly lower”. The “LSC survival and self-renewal, validation cohort” value in assay [2] (1 μM, separate patient samples, versus normal controls) was “Reduced AML LSC survival and self-renewal compared to normal controls”. For the same compound, the “AML LSC self-renewal compared with FD-895” value in assay [2] (0.1 and 1 μM doses, p=0.001) is reported as “significantly lower”. The “functional potency compared with FD-895” value in assay [2] (LSC assays) is on record as “greater functional potency than FD-895”. Moreover, in assay [2] (LSC assays, stromal co-culture), the “therapeutic index (AML LSC versus normal HSPC)” value was “favorable therapeutic index”. In addition, in assay [2] (setting [3]), the “AML LSC self-renewal (colony replating)” value is given as “dose-dependent reduction; also recorded: reduced AML LSC self-renewal” and the “AML LSC survival (colony formation)” value was “dose-dependent reduction; also recorded: reduced AML LSC survival”.
